One data set relates to CHO-K1. In words: cells. The note with it: Cricetulus griseus, CHO-K1, 24 h.
A further data set addresses Acetylcholinesterase (Homo sapiens, UniProt P22303).
The target in the next data set is Nitric oxide synthase 1 (Rattus norvegicus, UniProt P29476).
For a further data set, the target named is Cholinesterase (Homo sapiens, UniProt P06276).
The conditions of data set [1]: pampa, pH 7.4, 100 µM.
Description: Effective permeability of the compound in PBS buffer at pH 7.4 at 100 uM after 3 to 6 hrs by PAMPA
The subject of a further data set is HepG2. The data set can be described thus: cells. The note with it: Homo sapiens, HepG2, 24 h.

The values that follow come from ChEMBL document CHEMBL4390667, “Novel tacrine-tryptophan hybrids: Multi-target directed ligands as potential treatment for Alzheimer's disease” (Eur J Med Chem, 2019).

pIC50: −log10 of the molar value.

Chain of Cholinesterase (P06276 whole entry): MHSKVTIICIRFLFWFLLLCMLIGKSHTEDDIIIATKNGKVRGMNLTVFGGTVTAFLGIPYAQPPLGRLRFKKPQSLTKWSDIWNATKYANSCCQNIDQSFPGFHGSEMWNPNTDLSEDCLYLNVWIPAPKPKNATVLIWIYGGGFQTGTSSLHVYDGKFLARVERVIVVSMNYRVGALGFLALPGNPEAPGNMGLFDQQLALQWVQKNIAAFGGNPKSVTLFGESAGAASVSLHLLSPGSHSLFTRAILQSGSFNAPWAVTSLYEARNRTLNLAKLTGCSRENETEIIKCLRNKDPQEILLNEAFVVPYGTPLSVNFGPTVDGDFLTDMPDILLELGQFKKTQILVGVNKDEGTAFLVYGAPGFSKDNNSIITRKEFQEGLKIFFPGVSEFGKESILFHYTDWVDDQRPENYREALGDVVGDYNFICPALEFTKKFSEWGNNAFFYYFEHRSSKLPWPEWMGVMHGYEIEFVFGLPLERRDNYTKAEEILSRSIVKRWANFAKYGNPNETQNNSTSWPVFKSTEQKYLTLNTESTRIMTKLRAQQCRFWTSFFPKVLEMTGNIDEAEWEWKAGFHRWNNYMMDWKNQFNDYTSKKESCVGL
Chain of Nitric oxide synthase 1 (P29476 whole entry, looked up): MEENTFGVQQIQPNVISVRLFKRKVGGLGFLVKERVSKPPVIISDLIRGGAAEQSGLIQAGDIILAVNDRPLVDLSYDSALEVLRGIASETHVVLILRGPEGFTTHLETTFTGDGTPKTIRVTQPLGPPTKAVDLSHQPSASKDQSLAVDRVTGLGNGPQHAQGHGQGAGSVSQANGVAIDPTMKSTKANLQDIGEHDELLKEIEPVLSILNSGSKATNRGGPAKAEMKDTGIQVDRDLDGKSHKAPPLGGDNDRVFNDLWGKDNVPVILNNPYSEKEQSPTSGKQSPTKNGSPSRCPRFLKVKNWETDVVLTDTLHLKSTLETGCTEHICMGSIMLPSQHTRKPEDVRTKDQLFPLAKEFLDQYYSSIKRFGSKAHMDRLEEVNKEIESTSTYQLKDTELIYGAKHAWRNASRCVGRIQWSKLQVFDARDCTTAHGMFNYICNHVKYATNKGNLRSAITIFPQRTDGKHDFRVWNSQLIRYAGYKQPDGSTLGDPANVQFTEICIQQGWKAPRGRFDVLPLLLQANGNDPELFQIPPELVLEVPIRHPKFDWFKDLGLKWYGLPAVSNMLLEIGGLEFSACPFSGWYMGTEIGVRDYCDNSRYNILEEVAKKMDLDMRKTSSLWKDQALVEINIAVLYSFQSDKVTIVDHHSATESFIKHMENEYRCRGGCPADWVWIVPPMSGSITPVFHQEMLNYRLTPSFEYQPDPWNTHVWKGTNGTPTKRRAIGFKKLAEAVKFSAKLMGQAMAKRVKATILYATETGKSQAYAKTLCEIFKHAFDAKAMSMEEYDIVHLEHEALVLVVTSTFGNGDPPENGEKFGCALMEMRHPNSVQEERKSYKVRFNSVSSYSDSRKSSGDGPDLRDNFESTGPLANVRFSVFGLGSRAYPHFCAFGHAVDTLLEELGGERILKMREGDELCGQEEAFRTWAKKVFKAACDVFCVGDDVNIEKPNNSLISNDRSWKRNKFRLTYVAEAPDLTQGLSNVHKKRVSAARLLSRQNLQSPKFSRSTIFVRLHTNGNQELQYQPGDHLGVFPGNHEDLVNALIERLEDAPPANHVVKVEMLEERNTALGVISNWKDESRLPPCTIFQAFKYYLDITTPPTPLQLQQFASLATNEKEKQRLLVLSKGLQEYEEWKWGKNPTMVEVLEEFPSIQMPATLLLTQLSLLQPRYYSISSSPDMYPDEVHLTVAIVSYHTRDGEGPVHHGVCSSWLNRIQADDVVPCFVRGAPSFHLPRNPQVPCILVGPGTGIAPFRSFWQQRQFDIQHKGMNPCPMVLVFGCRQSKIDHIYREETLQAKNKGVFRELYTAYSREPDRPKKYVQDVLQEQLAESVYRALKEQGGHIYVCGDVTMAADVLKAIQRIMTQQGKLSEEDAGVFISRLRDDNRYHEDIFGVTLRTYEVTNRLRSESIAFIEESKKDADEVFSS
Chain of Acetylcholinesterase (P22303 whole entry): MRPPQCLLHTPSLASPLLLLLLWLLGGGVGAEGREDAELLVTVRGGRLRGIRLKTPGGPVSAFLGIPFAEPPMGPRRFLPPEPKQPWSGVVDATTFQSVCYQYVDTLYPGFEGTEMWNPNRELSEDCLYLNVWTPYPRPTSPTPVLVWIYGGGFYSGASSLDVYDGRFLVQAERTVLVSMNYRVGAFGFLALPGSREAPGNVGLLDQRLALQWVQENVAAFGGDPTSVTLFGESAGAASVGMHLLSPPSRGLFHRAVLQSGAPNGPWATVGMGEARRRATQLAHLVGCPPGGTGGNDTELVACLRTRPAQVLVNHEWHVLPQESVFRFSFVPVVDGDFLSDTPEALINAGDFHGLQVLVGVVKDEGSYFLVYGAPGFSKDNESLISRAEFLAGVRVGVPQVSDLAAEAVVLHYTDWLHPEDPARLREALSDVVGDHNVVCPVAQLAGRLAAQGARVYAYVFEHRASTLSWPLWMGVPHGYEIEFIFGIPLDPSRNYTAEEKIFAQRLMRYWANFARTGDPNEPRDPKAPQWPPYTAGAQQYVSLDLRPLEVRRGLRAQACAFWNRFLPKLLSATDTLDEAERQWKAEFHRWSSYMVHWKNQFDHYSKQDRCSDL
Description for Acetylcholinesterase: Inhibition of human recombinant AChE using acetylthiocholine iodide as substrate preincubated for 5 mins followed by substrate addition and measured over 2 mins by UV-Vis spectrophotometric analysis based Ellman's method
Description for CHO-K1: Cytotoxicity against CHOK1 cells assessed as reduction in cell viability incubated for 24 hrs by MTT assay
Description for HepG2: Cytotoxicity against human HepG2 cells assessed as reduction in cell viability incubated for 24 hrs by MTT assay
Description for Nitric oxide synthase 1: Inhibition of nNOS in Wistar rat cortical homogenates incubated for 30 mins

For `Cl.Cl.N[C@@H](Cc1c[nH]c2ccccc12)C(=O)NCCCNc1c2c(nc3ccccc13)CCCC2`, the negative logarithm of the IC50 (pIC50) was 3.94 in the data set with CHO-K1, 6.24 on Acetylcholinesterase, 4.49 against Nitric oxide synthase 1 and 7.40 against Cholinesterase. For the same compound, the permeability entry in data set [1] is recorded as “Impermeable”.

With `COc1ccc2nc3c(c(NCCCCCCNC(=O)[C@@H](N)Cc4c[nH]c5ccccc45)c2c1)CCCC3`, the pIC50 in the data set on CHO-K1 is 4.64; against Acetylcholinesterase it was 6.03; against Nitric oxide synthase 1, 4.57; in the data set on HepG2 it was 4.80; against Cholinesterase it was 7.26.

As to `Cl.Cl.N[C@@H](Cc1c[nH]c2ccccc12)C(=O)NCCCCCCCCNc1c2c(nc3cc(Cl)ccc13)CCCC2`, the negative logarithm of the IC50 (pIC50) with CHO-K1 was 4.19; against Acetylcholinesterase it was 7.30; at Nitric oxide synthase 1 it was 4.37; against Cholinesterase it was 6.85. Moreover, in data set [1], the permeability entry was “Permeable”.

In the case of `Cl.Cl.N[C@@H](Cc1c[nH]c2ccccc12)C(=O)NCCCCCCNc1c2c(nc3ccccc13)CCCC2`, the pIC50 was 4.05 in the data set on CHO-K1; 6.92 on Acetylcholinesterase; 4.48 against Nitric oxide synthase 1; 4.59 in the data set with HepG2; 8.41 at Cholinesterase. Also, the permeability result in data set [1] was “Impermeable”.

`c1ccc2c(NCCCCCCCNc3c4c(nc5ccccc35)CCCC4)c3c(nc2c1)CCCC3` had a negative logarithm of the IC50 (pIC50) against Nitric oxide synthase 1 of 5.54.

For the compound `Cl.Cl.N[C@@H](Cc1c[nH]c2ccccc12)C(=O)NCCCCCCCNc1c2c(nc3cc(Cl)ccc13)CCCC2`, the negative logarithm of the IC50 (pIC50) is 4.62 with CHO-K1; 7.72 against Acetylcholinesterase; 4.57 on Nitric oxide synthase 1; 5.22 in the data set on HepG2; 7.28 against Cholinesterase. For the same compound, the permeability result in data set [1] is “Permeable”.

With `Cl.Cl.N[C@@H](Cc1c[nH]c2ccccc12)C(=O)NCCNc1c2c(nc3ccccc13)CCCC2`, the pIC50 in the data set on CHO-K1 is 3.70; against Acetylcholinesterase, 6.14; at Nitric oxide synthase 1, 4.48; against Cholinesterase it was 7.25. Further, the permeability result in data set [1] is on record as “Impermeable”.

As for `Cl.Cl.N[C@@H](Cc1c[nH]c2ccccc12)C(=O)NCCCCCCCNc1c2c(nc3ccccc13)CCCC2`, the negative logarithm of the IC50 (pIC50) in the data set with CHO-K1 is 3.61; on Acetylcholinesterase it was 6.92; against Nitric oxide synthase 1 it was 4.49; at Cholinesterase, 7.60. In addition, the permeability entry in data set [1] is on record as “Impermeable”.

`COc1ccc2nc3c(c(NCCCCCNC(=O)[C@@H](N)Cc4c[nH]c5ccccc45)c2c1)CCCC3.Cl.Cl`: the negative logarithm of the IC50 (pIC50) was 4.34 in the data set on CHO-K1, 6.21 on Acetylcholinesterase, 4.59 against Nitric oxide synthase 1 and 6.72 against Cholinesterase. Moreover, the permeability entry in data set [1] is recorded as “Impermeable”.

As to `Nc1c2c(nc3cc(Cl)ccc13)CCCC2`, the pIC50 with CHO-K1 and in the data set on HepG2 was 4.15 in each case. For the same compound, the permeability entry in data set [1] is reported as “Permeable”.

For the compound `COc1ccc2nc3c(c(N)c2c1)CCCC3`, the negative logarithm of the IC50 (pIC50) in the data set with CHO-K1 was 4.20; in the data set on HepG2, 3.92. Further, the permeability result in data set [1] is listed as “Permeable”.

On to `COc1ccc2nc3c(c(NCCCNC(=O)[C@@H](N)Cc4c[nH]c5ccccc45)c2c1)CCCC3.Cl.Cl`, for which the pIC50 was 4.02 in the data set with CHO-K1, 5.89 at Acetylcholinesterase, 4.52 against Nitric oxide synthase 1 and 5.74 against Cholinesterase. In addition, in data set [1], the permeability entry was “Impermeable”.

On to `COc1ccc2nc3c(c(NCCCCCCCCNC(=O)[C@@H](N)Cc4c[nH]c5ccccc45)c2c1)CCCC3`, for which the pIC50 in the data set with CHO-K1 is 4.37; on Acetylcholinesterase it was 5.89; against Nitric oxide synthase 1, 4.35; on Cholinesterase it was 6.89.

As for `N[C@@H](Cc1c[nH]c2ccccc12)C(=O)NCCCCNc1c2c(nc3cc(Cl)ccc13)CCCC2`, the pIC50 is 4.80 in the data set with CHO-K1, 7.21 on Acetylcholinesterase, 4.59 against Nitric oxide synthase 1 and 6.92 on Cholinesterase.

Take `N[C@@H](Cc1c[nH]c2ccccc12)C(=O)NCCNc1c2c(nc3cc(Cl)ccc13)CCCC2`: the pIC50 is 4.59 with CHO-K1, 6.80 at Acetylcholinesterase, 4.41 on Nitric oxide synthase 1 and 6.47 at Cholinesterase.

Take `Cl.Cl.N[C@@H](Cc1c[nH]c2ccccc12)C(=O)NCCCCNc1c2c(nc3ccccc13)CCCC2`: the negative logarithm of the IC50 (pIC50) with CHO-K1 is 4.47; against Acetylcholinesterase it was 5.89; against Nitric oxide synthase 1 it was 4.74; against Cholinesterase, 6.91. Also, the permeability result in data set [1] was “Permeable”.

As for `COc1ccc2nc3c(c(NCCNC(=O)[C@@H](N)Cc4c[nH]c5ccccc45)c2c1)CCCC3.Cl.Cl`, the negative-log IC50 (pIC50) with CHO-K1 is 3.88; against Acetylcholinesterase it was 5.24; on Nitric oxide synthase 1 it was 4.72; against Cholinesterase, 6.32. In addition, the permeability entry in data set [1] was “Impermeable”.

Take `O=C(CCCCCNc1c2c(nc3cc(Cl)ccc13)CCCC2)NCCc1cc2ccccc2[nH]1`: the negative logarithm of the IC50 (pIC50) is 9.14 against Acetylcholinesterase and 6.74 on Cholinesterase. Further, the permeability entry in data set [1] is listed as “Permeable”.

Take `N[C@@H](Cc1c[nH]c2ccccc12)C(=O)NCCCCCCCCNc1c2c(nc3ccccc13)CCCC2`: the negative logarithm of the IC50 (pIC50) with CHO-K1 was 4.33; against Acetylcholinesterase, 7.12; against Nitric oxide synthase 1, 4.43; in the data set with HepG2, 5.03; at Cholinesterase, 7.19.

For `O=C(CCCCCCNc1c2c(nc3cccc(Cl)c13)CCCC2)NCCc1c[nH]c2ccccc12`, the negative-log IC50 (pIC50) was 11.10 at Acetylcholinesterase and 8.11 on Cholinesterase.

For `COc1ccc2nc3c(c(NCCCCCCCNC(=O)[C@@H](N)Cc4c[nH]c5ccccc45)c2c1)CCCC3`, the negative logarithm of the IC50 (pIC50) in the data set with CHO-K1 is 4.85; on Acetylcholinesterase, 6.01; on Nitric oxide synthase 1, 4.59; in the data set on HepG2, 5.25; against Cholinesterase, 7.11.

Take `N[C@@H](Cc1c[nH]c2ccccc12)C(=O)NCCCCCNc1c2c(nc3cc(Cl)ccc13)CCCC2`: the negative logarithm of the IC50 (pIC50) in the data set on CHO-K1 is 4.68; on Acetylcholinesterase it was 7.12; at Nitric oxide synthase 1, 4.57; at Cholinesterase, 7.13.

Turning to `Cl.Cl.N[C@@H](Cc1c[nH]c2ccccc12)C(=O)NCCCCCNc1c2c(nc3ccccc13)CCCC2`, the pIC50 was 4.08 in the data set with CHO-K1, 6.49 against Acetylcholinesterase, 4.59 on Nitric oxide synthase 1 and 7.64 against Cholinesterase. For the same compound, the permeability result in data set [1] is given as “Impermeable”.

Turning to `N[C@@H](Cc1c[nH]c2ccccc12)C(=O)NCCCNc1c2c(nc3cc(Cl)ccc13)CCCC2`, the negative-log IC50 (pIC50) in the data set on CHO-K1 was 4.54; against Acetylcholinesterase, 7.15; at Nitric oxide synthase 1, 4.51; against Cholinesterase, 6.85.

`N[C@@H](Cc1c[nH]c2ccccc12)C(=O)O` [TRYPTOPHAN]: in the data set on HepG2, the pIC50 was 1.77.

`CNC(=N)NCCC[C@H](N)C(=O)OC` showed a pIC50 against Nitric oxide synthase 1 of 5.39.

In the case of `COc1ccc2nc3c(c(NCCCCNC(=O)[C@@H](N)Cc4c[nH]c5ccccc45)c2c1)CCCC3.Cl.Cl`, the pIC50 in the data set on CHO-K1 was 4.14; at Acetylcholinesterase, 4.92; on Nitric oxide synthase 1, 4.57; at Cholinesterase, 6.28. Besides, in data set [1], the permeability result is reported as “Impermeable”.

`Cl.Cl.NC(Cc1c[nH]c2ccccc12)C(=O)NCCCCCCNc1c2c(nc3cc(Cl)ccc13)CCCC2` (racemic): the pIC50 in the data set with CHO-K1 was 4.68; against Acetylcholinesterase it was 8.13; at Nitric oxide synthase 1, 4.48; with HepG2, 5.29; at Cholinesterase, 7.89. In data set [1], the permeability result is “Permeable”.
